Biological target: T1, human mPGES-1 (Homo sapiens, UniProt O14684)
T1 construct: made in house; host or cells: FreeStyle CHO-S cells (Chinese hamster ovary), transient transfection with pcDNA3.1(+)/human mPGES-1; microsome fraction used
T1 sequence (O14684 1-152): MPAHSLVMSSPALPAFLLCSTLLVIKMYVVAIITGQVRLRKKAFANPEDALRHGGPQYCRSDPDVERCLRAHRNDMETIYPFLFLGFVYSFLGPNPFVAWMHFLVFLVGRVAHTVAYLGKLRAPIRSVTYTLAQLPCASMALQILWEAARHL
Assay: Evaluation of human mPGES-1 enzyme inhibitory activity (PGE2 measured by HTRF, microsome fraction of CHO-S cells expressing human mPGES-1)
Type: biochemical
Conditions: IC50 value; microsome fraction of CHO-S cells expressing human mPGES-1, PGE2 by HTRF
Procedure, shortened: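 Enzyme source: microsomes from CHO-S cells transfected with human mPGES-1 and cultured 48 hr, diluted to 5 μg/mL protein in reduced GSH (12.5 mmol/L KPB solution). Test articles were in 0.1 mol/L potassium phosphate pH 7.4, final DMSO 2% (v/v). PGE2 formed was quantified by HTRF.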

Row | Structure (SMILES) | IC50
1 | O=C(NCc1ccc(Cl)c(-c2nc(O)nc(-c3ccc(F)c(C4CC4)c3)n2)c1)C1(C(F)(F)F)CC1 [Example 1-157] | 0.7 nM
2 | CCCOc1ccc(-c2nc(O)nc(-c3cc(CN4CC(C)(C)C4=O)ccc3Cl)n2)cc1 [Example 1-158] | 12 nM
3 | CC(C)(C(=O)NCc1ccc(Cl)c(-c2nc(O)nc(-c3cccc(C4CC4)c3)n2)c1)C(F)(F)F [Example 1-159] | 0.7 nM
4 | O=C(NCc1ccc(Cl)c(-c2nc(O)nc(-c3cccc(C4CC4)c3)n2)c1)C1(C(F)(F)F)CC1 [Example 1-160] | 1.4 nM
5 | CCOc1ccc(-c2nc(O)nc(-c3cc(CNC(=O)C(C)(C)C(F)(F)F)ccc3Cl)n2)c(C)c1 [Example 1-161] | 1.3 nM
6 | CO[C@](C)(C(=O)NCc1ccc(Cl)c(-c2nc(O)nc(-c3ccc(OCC4CC4)cc3)n2)c1)C(F)(F)F [Example 1-162] | 1.2 nM
7 | O=C(NCc1ccc(Cl)c(-c2nc(O)nc(-c3ccc(OCC4CC4)cc3)n2)c1)C1(C(F)(F)F)CC1 [Example 1-163] | 1 nM
8 | CC(C)(C(=O)NCc1ccc(Cl)c(-c2nc(O)nc(-c3ccc(OCC4(C(F)(F)F)CC4)cc3)n2)c1)C(F)(F)F [Example 1-164] | 3.7 nM
9 | CO[C@](C)(C(=O)NCc1ccc(Cl)c(-c2nc(O)nc(-c3ccc(F)c(C4CC4)c3)n2)c1)C(F)(F)F [Example 1-165] | 0.9 nM
10 | CC(C)(CC(F)(F)F)C(=O)NCc1ccc(Cl)c(-c2nc(O)nc(-c3ccc(OCC4CC4)cc3)n2)c1 [Example 1-166] | 1.1 nM
11 | CC(C)(C(=O)NCc1ccc(Cl)c(-c2nc(O)nc(-c3ccc(OCCC4CC4)cc3)n2)c1)C(F)(F)F [Example 1-167] | 1.9 nM
12 | CC1(C)CC(C(=O)NCc2ccc(Cl)c(-c3nc(O)nc(-c4ccc(OCC5CC5)cc4)n3)c2)C1 [Example 1-168] | 2.1 nM
13 | O=C(NCc1ccc(Cl)c(-c2nc(O)nc(-c3ccc(OCC4CC4)cc3)n2)c1)C1CCC(F)(F)CC1 [Example 1-170] | 1.5 nM
14 | CCC(CC)C(=O)NCc1ccc(Cl)c(-c2nc(O)nc(-c3ccc(OCC4CC4)cc3)n2)c1 [Example 1-171] | 0.5 nM
15 | CC(C)(C(=O)NCc1ccc(Cl)c(-c2nc(O)nc(-c3ccc(OCC4CCCCC4)cc3)n2)c1)C(F)(F)F [Example 1-172] | 17 nM
16 | CC1(C)C(C(=O)NCc2ccc(Cl)c(-c3nc(O)nc(-c4ccc(OCC5CC5)cc4)n3)c2)C1(C)C [Example 1-173] | 5.4 nM
17 | Cc1ccc(C#N)c(-c2nc(O)nc(-c3ccc(C#Cc4ccccc4)cc3)n2)c1 [Example 1-174] | 3.1 nM
18 | Cc1cc(-c2nc(O)nc(-c3cc(CNC(=O)C(C)(C)C(F)(F)F)ccc3Cl)n2)ccc1OCC1CC1 [Example 1-175] | 1.3 nM
19 | Cc1cc(-c2nc(O)nc(-c3cc(CNC(=O)C(C)(C)C(F)(F)F)ccc3Cl)n2)cc(C)c1OCC1CC1 [Example 1-176] | 1.8 nM
20 | CO[C@](C)(C(=O)NCc1ccc(Cl)c(-c2nc(O)nc(-c3ccc(CC(C)C)cc3)n2)c1)C(F)(F)F [Example 1-177] | 1.3 nM
21 | CC1(C)CCC(Oc2ccc(-c3nc(O)nc(-c4cc(CNC(=O)C(C)(C)C(F)(F)F)ccc4Cl)n3)cc2)CC1 [Example 1-179] | 16 nM
22 | CCCCc1ccc(-c2nc(O)nc(-c3cc(CNC(=O)C(C)(C)C(F)(F)F)ccc3Cl)n2)cc1 [Example 1-180] | 4.1 nM
23 | CCCCc1ccc(-c2nc(O)nc(-c3cc(CNC(=O)[C@@](C)(OC)C(F)(F)F)ccc3Cl)n2)cc1 [Example 1-181] | 2.4 nM

Row | Structure (SMILES) | IC50
24 | CC(C)COc1ccc(-c2nc(O)nc(-c3cc(CNC(=O)C(C)(C)C(F)(F)F)ccc3Cl)n2)cn1 [Example 1-182] | 1.6 nM
25 | Cc1cc(-c2nc(O)nc(-c3cc(CNC(=O)C(C)(C)CC(F)(F)F)ccc3Cl)n2)ccc1F [Example 1-183] | 1.3 nM
26 | Cc1cc(-c2nc(O)nc(-c3cc(CNC(=O)C(C)(C)C(F)(F)F)ccc3Cl)n2)ccc1F [Example 1-186] | 1.4 nM
27 | CC(C)(C)COc1ccc(-c2nc(O)nc(-c3cc(CO)ccc3Cl)n2)cc1 [Example 1-187] | 5.3 nM
28 | CN(C)C(=O)OCc1ccc(Cl)c(-c2nc(O)nc(-c3ccc(OCC4CC4)cc3)n2)c1 [Example 1-190] | 47 nM
29 | CC(C)(C(=O)NCc1ccc(Cl)c(-c2nc(O)nc(-c3ccc(C#CC4CCCCC4)cc3)n2)c1)C(F)(F)F [Example 1-191] | 15 nM
30 | NC(=O)c1ccc(Cl)c(-c2nc(O)nc(-c3ccc(OCC4CC4)cc3)n2)c1 [Example 1-193] | 8700 nM
31 | CNC(=O)c1ccc(Cl)c(-c2nc(O)nc(-c3ccc(OCC4CC4)cc3)n2)c1 [Example 1-194] | 10500 nM
32 | CN(C)C(=O)c1ccc(Cl)c(-c2nc(O)nc(-c3ccc(OCC4CC4)cc3)n2)c1 [Example 1-195] | 6000 nM
33 | CN(Cc1ccc(Cl)c(-c2nc(O)nc(-c3ccc(OCC(C)(C)C)cc3)n2)c1)C(=O)C(C)(C)C(F)(F)F [Example 1-196] | 42 nM
34 | COCc1ccc(Cl)c(-c2nc(O)nc(-c3ccc(OCC(C)(C)C)cc3)n2)c1 [Example 1-197] | 289 nM
35 | CC(C)(C)COc1ccc(-c2nc(O)nc(-c3cc(CCO)ccc3Cl)n2)cc1 [Example 1-198] | 14 nM
36 | COCCc1ccc(Cl)c(-c2nc(O)nc(-c3ccc(OCC(C)(C)C)cc3)n2)c1 [Example 1-199] | 31 nM
37 | CC(C)(C(=O)NCc1ccc(Cl)c(-c2nc(O)nc(-c3ccccc3)n2)c1)c1ccccc1 [Example 1-202] | 8.2 nM
38 | CC(C)(C)COc1ccc(-c2nc(O)nc(-c3cc(CCNC(=O)C(C)(C)C(F)(F)F)ccc3Cl)n2)cc1 [Example 1-203] | 20 nM
39 | CC(C)COCc1ccc(Cl)c(-c2nc(O)nc(-c3ccc(OCC(C)(C)C)cc3)n2)c1 [Example 1-204] | 34 nM
40 | CCCCc1ccc(Cl)c(-c2nc(O)nc(-c3ccc(OCC(C)(C)C)cc3)n2)c1 [Example 1-205] | 367 nM
41 | CC(C)Cc1ccc(-c2nc(O)nc(-c3cc(CN(C)C(=O)C(C)(C)C(F)(F)F)ccc3Cl)n2)cc1 [Example 1-206] | 14 nM
42 | CC(C)(C)COc1ccc(-c2nc(O)nc(-c3cc(CO)ccc3C(F)(F)F)n2)cc1 [Example 1-207] | 4.3 nM
43 | CC(C)(C)COc1ccc(-c2nc(O)nc(-c3cc(CNC(=O)C(C)(C)C(F)(F)F)ccc3C(F)(F)F)n2)cc1 [Example 1-208] | 16 nM
44 | CCN(Cc1ccc(Cl)c(-c2nc(O)nc(-c3ccc(OCC(C)(C)C)cc3)n2)c1)C(=O)OC(C)(C)C [Example 1-209] | 59 nM
45 | CCNCc1ccc(Cl)c(-c2nc(O)nc(-c3ccc(OCC(C)(C)C)cc3)n2)c1 [Example 1-210] | 288 nM
46 | CN(Cc1ccc(Cl)c(-c2nc(O)nc(-c3ccc(OCC4CCCCC4)cc3)n2)c1)C(=O)C(C)(C)C(F)(F)F [Example 1-211] | 63 nM

Row | Structure (SMILES) | IC50
47 | CC(C)(C)COc1ccc(-c2nc(O)nc(-c3cc(CNCC(F)(F)F)ccc3Cl)n2)cc1 [Example 1-212] | 32 nM
48 | CN(Cc1ccc(Cl)c(-c2nc(O)nc(-c3ccc(C#CC4CCCCC4)cc3)n2)c1)C(=O)C(C)(C)C(F)(F)F [Example 1-213] | 88 nM
49 | CC(C)(C)COc1ccc(-c2nc(O)nc(-c3cc(CC(C)(C)O)ccc3Cl)n2)cc1 [Example 1-214] | 24 nM
50 | COC(C)(C)Cc1ccc(Cl)c(-c2nc(O)nc(-c3ccc(OCC(C)(C)C)cc3)n2)c1 [Example 1-215] | 452 nM
51 | CC(O)Cc1ccc(Cl)c(-c2nc(O)nc(-c3ccc(OCC(C)(C)C)cc3)n2)c1 (centres unmarked) [Example 1-216] | 39 nM
52 | CC(C)(C)COc1ccc(-c2nc(O)nc(-c3cc(CCC(=O)NC(C)(C)C)ccc3Cl)n2)cc1 [Example 1-217] | 126 nM
53 | CN(C)C(=O)CCc1ccc(Cl)c(-c2nc(O)nc(-c3ccc(OCC(C)(C)C)cc3)n2)c1 [Example 1-218] | 70 nM
54 | CC(C)COCc1ccc(Cl)c(-c2nc(O)nc(-c3ccc(C#CC4CCCCC4)cc3)n2)c1 [Example 1-219] | 41 nM
55 | CN(Cc1ccc(Cl)c(-c2nc(O)nc(-c3ccccc3)n2)c1)C(=O)C(C)(C)C(F)(F)F [Example 1-220] | 16 nM
56 | CN(Cc1ccc(Cl)c(-c2nc(O)nc(-c3ccccc3)n2)c1)C(=O)C(C)(C)C [Example 1-221] | 79 nM
57 | CC(C)C(=O)N(C)Cc1ccc(Cl)c(-c2nc(O)nc(-c3ccccc3)n2)c1 [Example 1-222] | 165 nM
58 | CN(Cc1ccc(Cl)c(-c2nc(O)nc(-c3ccc(OCC(C)(C)C)cc3)n2)c1)S(=O)(=O)C(C)(C)C [Example 1-223] | 7 nM
59 | CCC(=O)N(C)Cc1ccc(Cl)c(-c2nc(O)nc(-c3ccccc3)n2)c1 [Example 1-224] | 5800 nM
60 | CCCC(=O)N(C)Cc1ccc(Cl)c(-c2nc(O)nc(-c3ccccc3)n2)c1 [Example 1-225] | 4200 nM
61 | CC(C)CC(=O)N(C)Cc1ccc(Cl)c(-c2nc(O)nc(-c3ccccc3)n2)c1 [Example 1-226] | 2200 nM
62 | CN(CCc1ccc(Cl)c(-c2nc(O)nc(-c3ccc(OCC(C)(C)C)cc3)n2)c1)C(=O)C(C)(C)C(F)(F)F [Example 1-227] | 50 nM
63 | CN(Cc1ccc(Cl)c(-c2nc(O)nc(-c3ccccc3)n2)c1)C(=O)C1CCCC1 [Example 1-228] | 672 nM
64 | CN(Cc1ccc(Cl)c(-c2nc(O)nc(-c3ccccc3)n2)c1)C(=O)C1CCCCC1 [Example 1-229] | 532 nM
65 | CN(Cc1ccc(Cl)c(-c2nc(O)nc(-c3ccccc3)n2)c1)C(=O)c1ccccc1 [Example 1-230] | 750 nM
66 | CCC(C)(C)C(=O)N(C)Cc1ccc(Cl)c(-c2nc(O)nc(-c3ccccc3)n2)c1 [Example 1-231] | 45 nM
67 | CC(C)Cc1ccc(-c2nc(O)nc(-c3cc(CC(=O)N(C)C(C)(C)C)ccc3Cl)n2)cc1 [Example 1-232] | 521 nM

Same assay, conditions: at 30 μM test article

Row | Structure (SMILES) | inhibition at 30 µM
68 | O=C(O)c1ccc(Cl)c(-c2nc(O)nc(-c3ccc(OCC4CC4)cc3)n2)c1 [Example 1-192] | 41%

Source: patent US12398111B2, “Triazine compounds and pharmaceutical use thereof” (Japan Tobacco Inc., priority 2014, dated 2025)
